Columns and labels:
Assay type in all cases: biochemical
Human recombinant MMP-9 = target: T1, Human recombinant MMP-9 (Homo sapiens, UniProt P14780); experiment: In vitro MMP inhibition, Ki determination (fluorogenic substrate II)
T1 construct: made in house; host or cells: MMP-9-transfected HT1080 cells (spent media)
Procedure: Several hydroxamates and salts thereof were analyzed in in vitro assays to determine their ability to inhibit the MMP cleavage of peptide substrates. Inhibition (Ki) and IC50 constants were calculated from the assayed hydroxamate-MMP interactions.
Human recombinant MMP-1, MMP-2, MMP-9, MMP-13, and MMP-14 were used in this assay. All enzymes were prepared in Assignee's laboratories following usual laboratory procedures. Protocols for the preparation and use of these enzymes are available in the scientific literature. See, e.g., Enzyme Nomenclature (Academic Press, San Diego, Calif., 1992) (and the citations therein). See also, Frije et al., J. Biol. Chem., 26(24), 16766-73 (1994).
The MMP-9 proenzyme was purified by gelatin Sepharose chromatography from spent media of MMP-9-transfected HT1080 cells provided by Dr. Howard Welgus of Washington University (St. Louis, Mo.).
All MMPs were activated using 4-aminophenylmercuric acetate (“APMA”, Sigma Chemical, St. Louis, Mo.) or trypsin. MMP-9 also was activated using human recombinant MMP-3 (purified in Assignee's laboratory following standard cloning and purification techniques).
Two fluorogenic, methoxycoumarin-containing polypeptide substrates were used in the MMP inhibition assays:
MCA-ArgProLeuGlyLeuDpaAlaArgGluArgNH2 (II)
Here, “Dpa” is 3-(2,4-dinitrophenyl)-L-2,3-diaminopropionyl group, and “MCA” is 7-methoxycoumarin-4-yl acetyl. Substrate (I) was purchased from Baychem (Redwood City, Calif.), and substrate II was prepared Assignee's laboratory. Substrate I was used in the IC50 determination assays, while substrate II was used in the Ki determination assays. In the absence of MMP inhibitory activity, either substrate is cleaved at the Gly-Leu peptide bond. This cleavage separates the highly fluorogenic peptide from the 2,4-dinitrophenyl quencher, thus resulting in increase of fluorescent intensity.
The stock solutions of the assayed hydroxamates (or salts thereof) were prepared in 1% dimethyl sulfoxide (DMSO). These stock solutions were diluted in Buffer A (100 mM Tris-HCl, 100 mM NaCl, 10 mM CaCl2, 0.05% polyoxyethylene 23 lauryl ether, pH 7.5) to obtain solutions with different hydroxamate concentrations, i.e., assay solutions with different concentrations of the assayed MMP inhibitory compound. The experiment controls contained the same amount of Buffer A/DMSO as the assayed sample, but contained no hydroxamate (or salt thereof).
The assays from which the Ki determinations were made were performed as follows. The assayed hydroxamate samples were incubated in separate wells of untreated white polystyrene plates (Nunc Nalgene International, Rochester, N.Y.), and analyzed on a Tecan SpectraFlour Plus plate reader. The excitation wavelength was 330 nm, and the emission wavelength—420 nm. All samples (assayed hydroxamates and controls) were incubated in separate plate wells at room temperature for 1 hr in the presence of 4 μM of MMP substrate (II). In the absence of MMP inhibitory activity, substrate II was cleaved at the Gly-Leu bond resulting in an increase of relative fluorescence. Inhibition was observed as a reduced rate of this increase in relative fluorescence. The various hydroxamates were analyzed using a single low enzyme concentration with a single substrate concentration fixed at or below the Km. This protocol is a modification of method by Knight et al., FEBS Lett., 296(3), 263-266 (1992). Apparent inhibitory constants were determined by non-linear regression of reaction velocity as a function of inhibitor and enzyme concentration using Morrison's equation, as described by Kuzmic, Anal. Biochem. 286, 45-50 (2000). Modifications were made in the non-linear regression method to allow a common control reaction rate and effective enzyme concentration to be shared between all dose-response relationships on a given assay plate. […]

Human recombinant MMP-2 = target: T2, Human recombinant MMP-2 (Homo sapiens, UniProt P08253); experiment: In vitro MMP inhibition, IC50 determination (fluorogenic substrate I)
T2 construct: made in house; host or cells: MMP-2-transfected p2AHT2 cells
T2 sequence (P08253 110-660): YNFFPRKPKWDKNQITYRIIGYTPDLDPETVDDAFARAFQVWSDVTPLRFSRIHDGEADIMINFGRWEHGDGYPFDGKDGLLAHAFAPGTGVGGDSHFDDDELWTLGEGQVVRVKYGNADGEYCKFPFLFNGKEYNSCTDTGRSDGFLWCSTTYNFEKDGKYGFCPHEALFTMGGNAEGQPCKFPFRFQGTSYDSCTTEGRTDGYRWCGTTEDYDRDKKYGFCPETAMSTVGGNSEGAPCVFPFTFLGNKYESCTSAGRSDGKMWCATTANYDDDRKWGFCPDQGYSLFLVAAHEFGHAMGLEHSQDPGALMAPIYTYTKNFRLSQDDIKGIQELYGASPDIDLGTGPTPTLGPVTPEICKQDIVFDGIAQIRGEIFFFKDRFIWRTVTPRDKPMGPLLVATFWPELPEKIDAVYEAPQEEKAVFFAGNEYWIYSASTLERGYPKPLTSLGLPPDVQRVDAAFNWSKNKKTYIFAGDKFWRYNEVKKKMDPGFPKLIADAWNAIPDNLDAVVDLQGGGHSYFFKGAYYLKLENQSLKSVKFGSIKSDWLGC
Outline: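 APMA- or trypsin-activated recombinant MMP-2 was incubated at room temperature with serial inhibitor dilutions in Tris buffer pH 7.5 (100 mM NaCl, 10 mM CaCl2, 0.05% Brij), with DMSO from 1% stocks, and 4 μM substrate I. Cleavage was read by fluorescence at 328/415 nm; IC50 was taken from the loss of fluorescence versus inhibitor concentration.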

Human recombinant MMP-13 = target: T3, Human recombinant MMP-13 (Homo sapiens, UniProt P45452); experiment: as above
T3 construct: made in house; host or cells: baculovirus / insect cells
Outline: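 Fluorescence at 415 nm (excitation 328 nm) reports Gly-Leu cleavage of 4 μM quenched methoxycoumarin peptide substrate I. Human recombinant MMP-13, activated by trypsin or APMA, was incubated at room temperature with varied inhibitor concentrations in pH 7.5 Tris/NaCl/CaCl2 buffer; IC50 derived from reduced fluorescence.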

T1 sequence (P14780 107-707 limits assumed): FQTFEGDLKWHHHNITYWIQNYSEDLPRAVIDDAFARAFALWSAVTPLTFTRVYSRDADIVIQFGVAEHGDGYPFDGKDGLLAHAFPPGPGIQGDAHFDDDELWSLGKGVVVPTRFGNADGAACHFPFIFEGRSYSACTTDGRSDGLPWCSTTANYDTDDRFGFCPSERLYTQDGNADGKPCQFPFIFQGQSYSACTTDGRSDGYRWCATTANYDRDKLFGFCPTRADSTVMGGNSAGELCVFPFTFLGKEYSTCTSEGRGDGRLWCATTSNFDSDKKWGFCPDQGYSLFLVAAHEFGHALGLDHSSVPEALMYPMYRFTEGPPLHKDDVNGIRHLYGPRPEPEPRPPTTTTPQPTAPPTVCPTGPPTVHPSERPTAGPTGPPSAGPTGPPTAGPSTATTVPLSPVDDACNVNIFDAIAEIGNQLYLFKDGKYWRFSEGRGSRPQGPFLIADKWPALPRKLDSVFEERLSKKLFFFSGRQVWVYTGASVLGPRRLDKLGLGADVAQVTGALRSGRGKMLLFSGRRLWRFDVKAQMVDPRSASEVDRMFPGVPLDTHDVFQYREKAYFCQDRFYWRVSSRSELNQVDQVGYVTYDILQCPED

Row | Structure (SMILES) | Ki (Human recombinant MMP-9; value in parenthesis) [nM] | IC50 (Human recombinant MMP-2; value outside parenthesis) [nM] | IC50 (Human recombinant MMP-13; value outside parenthesis) [nM] | Ki (Human recombinant MMP-9; value in parentheses) [nM] | IC50 (Human recombinant MMP-2; value outside parentheses) [nM] | IC50 (Human recombinant MMP-13; value outside parentheses) [nM]
1 | COCCN1CCC(C(=O)NO)(S(=O)(=O)c2ccc(OCCCc3nc(-c4ccccc4OC(F)(F)F)no3)cc2)CC1 [Example 152] | 44.5 | 58.8 | 11.8 | – | – | –
2 | CCc1ccccc1-c1noc(CCCOc2ccc(S(=O)(=O)C3(C(=O)NO)CCN(CCOC)CC3)cc2)n1 [Example 155] | 172 | 13.8 | 9.7 | – | – | –
3 | CC(C)c1ccc(-c2cccc(CCCOc3ccc(S(=O)(=O)C4(C(=O)NO)CCOCC4)cc3)c2)cc1 [Example 160] | > 10000 | > 10000 | 505 | – | – | –
4 | O=C(NO)C1(S(=O)(=O)c2ccc(OCCCc3cccc(-c4cccc(F)c4)c3)cc2)CCOCC1 [Example 161] | 1730 | 1000 | 2.6 | – | – | –
5 | O=C(NO)C1(S(=O)(=O)c2ccc(OCCCc3cccc(-c4ccccc4Cl)c3)cc2)CCOCC1 [Example 162] | 3150 | 1600 | 15.6 | – | – | –
6 | O=C(NO)C1(S(=O)(=O)c2ccc(OCCCc3cccc(-c4ccccc4F)c3)cc2)CCOCC1 [Example 163] | 2500 | 1370 | 2.5 | – | – | –
7 | Cc1ccccc1-c1cccc(CCCOc2ccc(S(=O)(=O)C3(C(=O)NO)CCOCC3)cc2)c1 [Example 164] | 2720 | 1070 | 20 | – | – | –
8 | Cc1ccc(-c2cccc(CCCOc3ccc(S(=O)(=O)C4(C(=O)NO)CCOCC4)cc3)c2)cc1C [Example 165] | 9750 | 3400 | 147 | – | – | –
9 | COCCN1CCC(C(=O)NO)(S(=O)(=O)c2ccc(OCCCc3nc(-c4ccc(CC(C)C)cc4)no3)cc2)CC1 [Example 175] | 1390 | 438 | 1.4 | – | – | –
10 | COCCN1CCC(C(=O)NO)(S(=O)(=O)c2ccc(OCCCc3nnc(-c4ccccc4C(F)(F)F)o3)cc2)CC1 [Example 178] | 306 | 28.4 | 7.8 | – | – | –
11 | COCCN1CCC(C(=O)NO)(S(=O)(=O)c2ccc(OCCCc3nc(-c4ccc(OC(F)(F)F)cc4)no3)cc2)CC1 [Example 190] | 669 | 166 | 0.5 | – | – | –
12 | O=C(NO)C1(S(=O)(=O)c2ccc(OCCCc3ccnc(-c4ccccc4)c3)cc2)CCOCC1 [Example 197] | 334 | 13.2 | 0.5 | – | – | –
13 | O=C(CCCc1ccc(S(=O)(=O)C2(C(=O)NO)CCOCC2)cc1)c1cccc(-c2ccccc2)c1 [Example 219] | 59.5 | 60.8 | 0.4 | – | – | –
14 | COc1ccc(/C(C#N)=C/CCCOc2ccc(S(=O)(=O)C3(C(=O)NO)CCN(C4CC4)CC3)cc2)cc1 [Example 233] | 509 | 25.5 | 0.1 | – | – | –
15 | O=C(NO)C1(S(=O)(=O)c2ccc(OCCCc3cncc(Br)c3)cc2)CCOCC1 [Example 522] | – | – | – | 135 | 12.9 | 0.3
16 | O=C(NO)C1(S(=O)(=O)c2ccc(OCCCc3cncc(-c4ccc(F)cc4)c3)cc2)CCOCC1 [Example 523] | – | – | – | 1250 | 162 | 0.3
17 | O=C(NO)C1(S(=O)(=O)c2ccc(OCCCc3cncc(-c4ccccc4)c3)cc2)CCOCC1 [Example 524] | – | – | – | 739 | 38.3 | 0.2
18 | O=C(COc1ccc(S(=O)(=O)C2(C(=O)NO)CCOCC2)cc1)c1cccc(-c2ccccc2)c1 [Example 563] | – | – | – | 132 | 73.5 | 1.1
19 | O=C(NO)C1(S(=O)(=O)c2ccc(OCCCc3nc(-c4cccnc4)no3)cc2)CCOCC1 [Example 578] | – | – | – | 578 | 20.5 | 2.9
20 | O=C(NO)C1(S(=O)(=O)c2ccc(OCCCc3nc(-c4ccccc4)no3)cc2)CCOCC1 [Example 584] | – | – | – | 12.6 | 72.9 | 3.6
21 | O=C(NO)C1(S(=O)(=O)c2ccc(OCCCc3cc(-c4ccc(F)cc4F)cs3)cc2)CCOCC1 [Example 587] | – | – | – | 8180 | 81.7 | 0.1

Results, then the compound that gave them:

Row | Ki (Human recombinant MMP-9; value in parenthesis) [nM] | IC50 (Human recombinant MMP-2; value outside parenthesis) [nM] | IC50 (Human recombinant MMP-13; value outside parenthesis) [nM] | Ki (Human recombinant MMP-9; value in parentheses) [nM] | IC50 (Human recombinant MMP-2; value outside parentheses) [nM] | IC50 (Human recombinant MMP-13; value outside parentheses) [nM] | Structure (SMILES)
22 | 151 | 10.9 | 0.8 | – | – | – | O=C(NO)C1(S(=O)(=O)c2ccc(OCCCc3cccc(Br)c3)cc2)CCOCC1 [Example 154]
23 | 1390 | 182 | 3.5 | – | – | – | O=C(NO)C1(S(=O)(=O)c2ccc(OCCOc3cccc(-c4ccccc4)c3)cc2)CCOCC1 [Example 157]
24 | 40.5 | 13.9 | 0.3 | – | – | – | O=C(CCCOc1ccc(S(=O)(=O)C2(C(=O)NO)CCOCC2)cc1)Nc1cccc(OC(F)(F)F)c1 [Example 181]
25 | 85.4 | 33.1 | 0.5 | – | – | – | CC(C)c1cccc(NC(=O)CCCOc2ccc(S(=O)(=O)C3(C(=O)NO)CCOCC3)cc2)c1 [Example 182]
26 | 247 | 11.4 | 0.2 | – | – | – | O=C(CCCOc1ccc(S(=O)(=O)C2(C(=O)NO)CCOCC2)cc1)Nc1ccc(OC(F)(F)F)cc1 [Example 228]
27 | 281 | 12.2 | 1.7 | – | – | – | Cc1cc(OC(F)(F)F)ccc1NC(=O)CCCOc1ccc(S(=O)(=O)C2(C(=O)NO)CCOCC2)cc1 [Example 229]
28 | 1490 | 226 | 5.09 | – | – | – | CN(C(=O)CCCOc1ccc(S(=O)(=O)C2(C(=O)NO)CCOCC2)cc1)c1ccc(OC(F)(F)F)cc1 [Example 249]
29 | 12.5 | 2.5 | 0.3 | – | – | – | O=C(CCCOc1ccc(S(=O)(=O)C2(C(=O)NO)CCOCC2)cc1)Nc1ccc(OC(F)(F)F)cc1 [Example 250]
30 | > 10000 | 590 | 1.1 | – | – | – | Cc1cc(NC(=O)CCCOc2ccc(S(=O)(=O)C3(C(=O)NO)CCOCC3)cc2)ccc1OC(C)C [Example 290]
31 | – | – | – | 6.15 | 4.8 | 0.2 | O=C(CCCOc1ccc(S(=O)(=O)C2(C(=O)NO)CCOCC2)cc1)Nc1cccc(I)c1 [Example 570]
32 | – | – | – | 83 | 29.4 | 0.7 | O=C(NO)C1(S(=O)(=O)c2ccc(OCCCc3cccc(-n4ccnc4)c3)cc2)CCOCC1 [Example 574]
